Reference: article PMC9030166, “Natural Phaeosphaeride A Derivatives Overcome Drug Resistance of Tumor Cells and Modulate Signaling Pathways” (Pharmaceuticals, 2022)

System: Akt (pSer473)
Test: MILLIPLEX MAP 9-Plex, Akt active form in A431 lysates
Assay type: cell-based, human
Settings: A431 cell lysates, 10 μM, 1 h, M ± mx; control 76.4 ± 16.9
Source text: We used the MILLIPLEX MAP Multi-Pathway Magnetic Bead 9-Plex-Cell Signaling Multiplex Assay, which allows the simultaneous detection of nine phosphorylated proteins that are markers of the main intracellular signaling pathways (phosphorylation site is indicated in parentheses), a universal transcription factor that controls the expression of immune response genes; apoptosis and cell cycle NFκB (pS536); cAMP-dependent transcription factor (CREB (pS133); mitogen-activated kinase p38 (pT180/pY182); stress-activated protein kinase JNK (pT183/pY185); ribosomal […]; transcription factors STAT3 (pS727) and STAT5A/B (pY694/699); protein kinase B (Akt) (pS473); and kinase regulated by extracellular signals ERK1/2 (pT185/pY187).
The effect of various concentrations of PPA derivatives on the cell culture was studied using xCelligence RTCA equipment (AceaBioscience, San Diego, CA, USA). The concentration closest to the IC50 (10 μM) was chosen as the experimental concentration. The selected concentration of phaeosphaeride A derivatives allows for the assessment of the early effect of compounds on cells and compares their effectiveness. In this experiment, the signaling pathways Akt (pSer473), p70S6K (pThr412), NFkB (p65-pSer536), and CREB (pSer133) were not activated (Table 8). The stress-activated signaling pathways ERK/MAP kinase 1/2 (pThr185/pTyr187), JNK (pThr183/pTyr185), and p38 (pThr180/pTyr182) were activated for these compounds.
We used a MILLIPLEX MAP Multi-Pathway Magnetic Bead 9-Plex-Cell Signaling Multiplex Assay kit (Merck/Millipore), according to the manufacturer’s protocol. A431 cells were cultured in DMEM with 10% FBS in 24-well plates. Compounds were added to the subconfluent cells at a concentration of 10 μM in DMEM medium for 1 h. Each compound was added in 5 experimental repeats. Cell lysates were prepared with lysis buffer (Millipore) with protease inhibitors (Complete, Roche); the protein concentration in the lysates was determined by the Lowry method. In samples equalized in protein concentration, the active forms of kinase cascades were determined using a Bio-Plex 200 fluorescent analyzer (Bio-Rad).

Question: For `C=C1C2=C(C(=O)N1OC)[C@@H](N1CCCC1)[C@@](C)(O)[C@H](CCCCC)O2` [Compound 1], which “Akt (pSer473) fluorescence intensity” value is on record?
Answer: 112.6 ± 12.0 rel. units

Question: Which “Akt (pSer473) fluorescence intensity” value does the source give for `C=C1C2=C(C(=O)N1OC)[C@@H](N(C)C)[C@@](C)(O)[C@H](CCCCC)O2` [Compound 2, (2S,3R,4R)-4-(dimethylamino)-3-hydroxy-6-methoxy-3-methyl-7-methylene-2-pentyl-3,4,6,7-tetrahydropyrano[2,3-c]pyrrol-5(2H)-one] here?
Answer: 132.4 ± 17.9 rel. units

Question: How did the “Akt (pSer473) fluorescence intensity” value turn out when `C=C1C2=C(C(=O)N1OC)[C@@H](N(CCCC)CCCC)[C@@](C)(O)[C@H](CCCCC)O2` [Compound 5, (2S,3R,4R)-4-(dibutylamino)-3-hydroxy-6-methoxy-3-methyl-7-methylene-2-pentyl-3,4,6,7-tetrahydropyrano[2,3-c]pyrrol-5(2H)-one] was run?
Answer: 100.9 ± 11.7 rel. units

Question: With `C=C1C2=C(C(=O)N1OC)[C@@H](N(CC)CCO)[C@@](C)(O)[C@H](CCCCC)O2` [Compound 9, (2S,3R,4R)-4-[ethyl(2-hydroxyethyl)amino]-3-hydroxy-6-methoxy-3-methyl-7-methylene-2-pentyl-3,4,6,7-tetrahydropyrano[2,3-c]pyrrol-5(2H)-one] as the molecule, how does the “Akt (pSer473) fluorescence intensity” value read?
Answer: 88.8 ± 10.7 rel. units

Question: How did the “Akt (pSer473) fluorescence intensity” value turn out when `CCCCC[C@@H]1OC2=C(C(=O)N(OC)/C2=C\n2cnnc2)C(n2cnnc2)[C@@]1(C)O` (some centres unmarked) [Compound 10] was run?
Answer: 142.1 ± 9.5 *↑ rel. units
